Here are results for five compounds from patent EP0581166A1, “Benzimidazoles, process for their preparation and their use as angiotensin-II antagonists” (Dr. Karl Thomae GmbH, priority 1992, dated 1994).

The assay has as its target T1, Angiotensin II-Rezeptor (Rattus norvegicus, UniProt P25095).
T1 construct: Das Gewebe (Rattenlunge) wird in Tris-Puffer; from tissue; host or cells: rat lung homogenate (membrane pellet, 20,000 x g)
T1 sequence (P25095 1-359): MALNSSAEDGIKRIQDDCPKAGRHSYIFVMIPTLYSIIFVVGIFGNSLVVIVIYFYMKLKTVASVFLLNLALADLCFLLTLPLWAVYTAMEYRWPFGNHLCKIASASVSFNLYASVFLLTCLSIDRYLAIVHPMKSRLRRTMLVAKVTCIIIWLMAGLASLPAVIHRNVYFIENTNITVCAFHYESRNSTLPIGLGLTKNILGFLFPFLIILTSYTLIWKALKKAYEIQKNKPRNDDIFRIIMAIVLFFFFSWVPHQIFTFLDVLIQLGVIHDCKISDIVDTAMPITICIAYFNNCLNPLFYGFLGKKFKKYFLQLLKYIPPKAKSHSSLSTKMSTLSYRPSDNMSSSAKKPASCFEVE
Nature of the assay: Angiotensin II receptor binding: displacement of [125I]-angiotensin II in rat lung homogenate. The arrangement: species or system Ratte. The note with it: rat lung (Rattenlunge) homogenate, 50 pM [125I]-Angiotensin II, 60 min at 37°C, IC50 from dose-response curve; read-out: IC₅₀. As to the method:
Methodenbeschreibung Angiotensin II-Rezeptorbindung
Das Gewebe (Rattenlunge) wird in Tris-Puffer (50 mMol Tris, 150 mMol NaCl, 5 mMol EDTA, pH 7.40) homogenisiert und zweimal je 20 Min. bei 20.000 x g zentrifugiert. Das endgültige Pellet wird in Inkubations-Puffer (50 mMol Tris, 5 mMol MgCl₂, 0,2 % BSA, pH 7,40) 1:75, bezogen auf das Feuchtgewicht des Gewebes, resuspendiert. Je 0,1 ml Homogenat wird für 60 Min. bei 37°C mit 50 pM [125^I]-Angiotensin II (NEN, Dreieich, FRG) und steigenden Konzentrationen der Testsubstanz in einem Gesamtvolumen von 0,25 ml inkubiert. Die Inkubation wird durch rasche Filtration durch Glasfiber-Filtermatten beendet. Die Filter werden je 4 ml eiskaltem Puffer (25 mMol Tris, 2.5 mMol MgCl₂, 0,1 % BSA, pH 7,40) gewaschen. Die gebundene Radioaktivität wird in einem Gamma-Counter ermittelt. Aus der Dosis-Wirkungskurve wird der entsprechende IC₅₀-Wert ermittelt.
In general terms: Loss of bound radioactivity is the signal in a displacement assay; it reports binding, not function.
Regarding `CCCc1nc2c(C)cc(N3CCCCS3(=O)=O)cc2n1Cc1ccc(-c2ccccc2C(=O)O)cc1` [Substanz B, 4'-[(2-n-Propyl-4-methyl-6-(butansultam-1-yl)-benzimidazol-1-yl)-methyl]-biphenyl-2-carbonsäure], the IC50 was found to be 0.9 nM.

Consider `Cc1cc(-c2cn3ccccc3n2)cc2c1nc(C1CC1)n2Cc1ccc(-c2ccccc2C(=O)O)cc1` [Substanz C, 4'-[(2-Cyclopropyl-4-methyl-6-(imidazo[1,2-a]pyridin-2-yl)-benzimidazol-1-yl)-methyl]-biphenyl-2-carbonsäure], for which the IC50 is 1.7 nM.

In the case of `CCOc1nc2c(C)cc(-c3nc4ccccc4n3C)cc2n1Cc1ccc(-c2ccccc2-c2nnn[nH]2)cc1` [Substanz E, 4'-[(2-Ethoxy-4-methyl-6-(1-methyl-benzimidazol-2-yl)-benzimidazol-1-yl)-methyl]-2-(1H-tetrazol-5-yl)-biphenyl], the IC50 stood at 3.3 nM.

As for `CCc1nc2c(C)cc(-c3nc4cc(F)ccc4n3C)cc2n1Cc1ccc(-c2ccccc2C(=O)O)cc1` [Substanz A, 4'-[(2-Ethyl-4-methyl-6-(1-methyl-5-fluor-benzimidazol-2-yl)-benzimidazol-1-yl)-methyl]-biphenyl-2-carbonsäure], the IC50 turned out to be 7.4 nM.

With `Cc1cc(-c2cn3c(n2)CCCC3)cc2c1nc(C1CC1)n2Cc1ccc(-c2ccccc2C(=O)O)cc1` [Substanz D, 4'-[(2-Cyclopropyl-4-methyl-6-(5,6,7,8-tetrahydro-imidazo[1,2-a]pyridin-2-yl)-benzimidazol-1-yl)-methyl]-biphenyl-2-carbonsäure], the IC50 worked out at 1.3 nM.
